Experimental findings from patent EP0204215B1, “2-[(1H-benzimidazol-2-ylsulfinyl)methyl]-benzenamines” (G.D. Searle & Co., priority 1985, dated 1986) are described below.

The target in one experiment is T1, (H⁺+K⁺)-ATPase (Canis lupus familiaris, UniProt P50996).
T1 construct: The microsomes retained at the 15%-30% sucrose interface, after centrifugation at 250,000xg for sixty minutes, were used as the source of (H⁺+K⁺)-ATPase; from tissue; host or cells: gastric glandular mucosa of mongrel dogs (microsomal fraction, sucrose step gradient, lyophilized)
The experiment can be described thus: Inhibition of (H⁺+K⁺)-ATPase from canine gastric mucosa (release of inorganic phosphate). Format: biochemical. The settings on record: microsomes from canine gastric mucosa, pH 6.0, preincubated 30 min at 37°; read-out: (H⁺+K⁺)-ATPase IC₅₀. The procedure: Mongrel dogs weighing 15 to 25 kilograms were fasted for twenty-four hours, with water provided ad libitum. The animals were anesthetized with pentobarbital and the stomachs were removed. Subsequent tissue manipulations and subcellular fractionations were performed at 0 to 4°C. After the stomachs were cut open and rinsed with tap water, the antral and cardiac regions were removed and the remaining tissue was rinsed three times in saline. The glandular mucosa was removed mechanically, chopped finely in a medium containing 10 mM Tris hydrochloride (pH 7.4) and 250 mM sucrose, and homogenized. The homogenate was centrifuged at 20,000xg for twenty minutes and the pellet discarded. The supernatant was then centrifuged at 150,000xg for ninety minutes and the supernatant discarded. The pellet was resuspended in the Tris-HCl/sucrose medium by homogenization. Part (2 ml) of the resultant microsomal suspension was layered onto a step gradient consisting of 9 ml of 15% sucrose above 12 ml of 30% sucrose, each sucrose solution being buffered with 10 mM Tris hydrochloride (pH 7.4) containing 0.01% sodium aside. The microsomes retained at the 15%-30% sucrose interface, after centrifugation at 250,000xg for sixty minutes, were used as the source of (H⁺+K⁺)-ATPase. Microsomal preparations were lyophilized, a process that assured potassium ion permiability, and stored at -10° until used.
(H⁺+K⁺)-ATPase activity for each test compound was determined, in duplicate, by measuring the release of inorganic phosphate, which was assayed according to the method of J. ChandraRajan and L. Klein. Anal. Biochem., 72, 407-412 (1976). The (H⁺+K⁺)-ATPase assay medium consisted of 20 mM Mes-Tris (pH 6.0), 5 mM magnesium chloride, 25 mM sucrose, and 4mM Tris-ATP with or without 20 mM potassium chloride in a total volume of 2 ml. Microsomal suspensions (20 to 60 mcl, containing about 25 mcg protein) were added to the assay medium, without Tris-ATP, and then preincubated with a test compound for thirty minutes at 37°. The assay was initiated by adding Tris-ATP and the mixture was incubated another thirty minutes at 37°. A 200-mcl aliquot of the assay mixture was then added to 1.4 ml of a solution consisting of 0.1 M sodium acetate (pH 4.0) and 10% sodium dodecylsulfate, followed by the addition of 200 mcl each of 1% ammonium molybdate and 1% ascorbic acid. At least fifteen minutes later, the optical absorbance at 870 nm (which was proportional to inorganic phosphate concentration up to 100 nmoles per tube, as determined by a standard curve) was obtained. Enzyme activity was linear with incubation time.
(H⁺+K⁺)-ATPase activity is represented by the difference between the measured activities in the presence of potassium ion (K⁺-stimulated) and in the absence of potassium ion (basal). The concentration of a test compound required to inhibit 50% of the (H⁺+K⁺)-ATPase activity (i.e., the IC₅₀) was determined at least in duplicate using linear regression analysis of results obtained for three different compound concentrations ranging from 0.1 mcM to 0.2 mM.

The subject of experiment [1] is Gastric Acid Secretion. Kind of experiment: Inhibition of gastric acid secretion in gastric fistula beagle dogs (histamine-stimulated). Format: in vivo. Particulars: four-hour histamine stimulation; for Gastric-Fistula Beagle % Inhibition: 3 mg/kg dose; for inhibition in vivo at 3 mg/kg: Canis lupus familiaris, 4 h. An excerpt:
Adult female beagle dogs weighing 6 to 11 kilograms obtained from Laboratory Research Enterprises (Kalamazoo, Mich.) or from Hazelton Research Animals (Cumberland, Va.) were surgically implanted with a simple Thomas-type gastric cannula. After recovery from surgery, the dogs were trained to stand quietly, fully conscious, in Pavlov-type dog restraining slings and were acclimated to intravenous infusion of histamine dihydrochloride. During the course of these studies, no dog was used more than once a week. All dogs were deprived of food, but not water, for 18 hours prior to each assay. Each dog was initially infused with 0.15 M sodium chloride solution at a constant rate of […]. The volume of gastric secretions, collected in plastic bottles affixed to the cannula, were measured to the nearest 0.1 ml at 30 minute intervals. One of the following protocols was followed, depending on the route chosen for administration of test compound.
Intravenous dosing: Following a 30-minute basal secretion period, test compounds were administered intravenously (i.v.). At the end of an additional 30 minute period, the saline infusion was replaced with histamine dihydrochloride in saline administered at a rate 15 mcg per kilogram of body weight per hour. Histamine stimulation was maintained for a maximum of four hours during which time gastric secretions were collected every 30 minutes. The pH and titratable acidity were determined for samples from each collection period.
Intragastric dosing: Following a 30-minute basal secretion period, the collection bottles were removed, dosing plugs were inserted, and test compounds were administered intragastrically (i.g.). At the end of a 30-minute drug absorption period, the stomachs were emptied, the collection bottles were reattached, and collections were resumed at 30-minute intervals. Simultaneously, the saline infusion was replaced with a continuous intravenous infusion of histamine dihydrochloride in saline administered for four hours at a rate 15 mcg per kilogram of body weight per hour.
Intraduodenal dosing: Dogs were also equipped with duodenal cannulas for intraduodenal (i.d.) administration of test compounds. Dosing was otherwise performed as described for intragastric dosing.
Data from each protocol were analyzed for three gastric sample variables: volume of gastric juice, acid concentration, and total acid output. Percent inhibition for each four-hour experimental period was determined for each parameter by comparison with 3 to 4 controls in which only food was given. Estimates of ED₅₀'s were determined from dose response curves.

The subject of experiment [2] is Gastric Acid Secretion. The experiment can be described thus: Inhibition of gastric acid secretion in meal-stimulated Pavlov pouch dog. Particulars: four-hour period. Format: in vivo, beagle dogs. The procedure:
Adult female beagle dogs weighing 6 to 10 kilograms were obtained from Laboratory Research Enterprises (Kalamazoo, Mich.) or from Hazelton Research Animals (Cumberland, Va.). Surgical implantation of a Thomas-type gastric cannula into an innervated Pavlov pouch of each dog was performed by the method reported by L. Burrows et al., J. Surgical Res., 4, 147-150 (1964). After recovery from surgery, the dogs were trained to stand quietly, fully conscious, in Pavlov-type dog restraining slings. All dogs were deprived of food, but not water, for 24 hours prior to each assay. Basal acid secretion was measured by collecting from the cannulas for 30 minutes before dosing with a test compound. Solutions of the test compounds in iso-osmotic phosphate buffer (pH 7.4) were given either intravenously or directly into the Pavlov pouch. After 30 minutes the pouch was drained. The dogs were then fed 320 grams of dog food and gastric acid secretions were collected each half hour for four hours. Controls were determined in the same way except that only food (i.e., no test compound) was administered.
Data were analyzed for three different variables: volume of gastric juice, acid concentration, and total acid output. Percent inhibition for the four-hour experimental period was determined for each parameter by comparison with 3 to 4 controls. Estimates of ED₅₀ were determined from dose response curves.

T1 sequence (P50996 whole entry): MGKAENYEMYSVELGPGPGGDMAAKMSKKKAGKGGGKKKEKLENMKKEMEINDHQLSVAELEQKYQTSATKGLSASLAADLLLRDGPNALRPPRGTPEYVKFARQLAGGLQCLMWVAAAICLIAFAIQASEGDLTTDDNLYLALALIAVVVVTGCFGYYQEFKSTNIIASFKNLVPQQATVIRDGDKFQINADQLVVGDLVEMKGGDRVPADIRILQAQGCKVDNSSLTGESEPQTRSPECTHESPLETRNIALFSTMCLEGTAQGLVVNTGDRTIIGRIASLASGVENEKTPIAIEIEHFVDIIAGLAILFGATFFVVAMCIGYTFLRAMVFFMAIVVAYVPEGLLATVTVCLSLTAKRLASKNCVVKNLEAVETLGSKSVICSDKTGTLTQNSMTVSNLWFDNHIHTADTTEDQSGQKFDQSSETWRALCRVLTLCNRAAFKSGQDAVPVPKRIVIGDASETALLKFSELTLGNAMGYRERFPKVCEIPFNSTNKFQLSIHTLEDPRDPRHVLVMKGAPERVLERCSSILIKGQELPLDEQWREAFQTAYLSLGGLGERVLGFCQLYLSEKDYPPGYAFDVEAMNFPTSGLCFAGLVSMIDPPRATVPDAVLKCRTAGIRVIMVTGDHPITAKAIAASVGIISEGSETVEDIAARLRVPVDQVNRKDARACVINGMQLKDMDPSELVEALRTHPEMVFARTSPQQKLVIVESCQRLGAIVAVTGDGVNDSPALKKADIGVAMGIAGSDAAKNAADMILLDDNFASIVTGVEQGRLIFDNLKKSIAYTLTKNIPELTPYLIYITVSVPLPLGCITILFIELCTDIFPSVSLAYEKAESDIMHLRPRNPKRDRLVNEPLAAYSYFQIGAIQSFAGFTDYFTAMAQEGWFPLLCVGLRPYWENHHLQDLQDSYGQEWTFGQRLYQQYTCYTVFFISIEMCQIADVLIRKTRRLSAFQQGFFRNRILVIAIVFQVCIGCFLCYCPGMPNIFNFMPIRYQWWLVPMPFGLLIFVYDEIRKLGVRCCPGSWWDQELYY
T1 sequence (P33704 whole entry partner): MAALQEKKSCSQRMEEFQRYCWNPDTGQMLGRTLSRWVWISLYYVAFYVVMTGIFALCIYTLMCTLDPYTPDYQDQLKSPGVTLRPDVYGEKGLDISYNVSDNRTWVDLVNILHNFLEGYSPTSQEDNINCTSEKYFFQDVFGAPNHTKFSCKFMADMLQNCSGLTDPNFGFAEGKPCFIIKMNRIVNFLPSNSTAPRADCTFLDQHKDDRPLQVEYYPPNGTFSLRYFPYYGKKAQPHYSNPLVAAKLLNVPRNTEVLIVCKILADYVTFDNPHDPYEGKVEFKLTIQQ

Consider “2-[[[(5-(trifluoromethy)1-1H-benzimidazol-2-yl]thio]methyl]-3,6-dimethylbenzenamine [Example 28]”, for which the IC50 at (H⁺+K⁺)-ATPase came out at 5.3 µM.
Turning to “2-[[[(5-(trifluoromethyl)-1H-benzimidazol-2-yl]thio]methyl]benzenamine [Example 20]”, at (H⁺+K⁺)-ATPase, the IC50 worked out at 5.4 µM. Also, the figures for the “Gastric-Fistula Beagle % Inhibition” value in the experiment on Gastric Acid Secretion [1] (i.d.) and with Gastric Acid Secretion [1] (i.v.) were 72 i.d. % and 96 i.v. %, respectively.
With `Nc1ccccc1C[S+]([O-])c1nc2ccccc2[nH]1` (stereo not drawn) [Example 3, 2-[(1H-benzimidazol-2-ylsulfinyl)methyl] benzenamine hemihydrate], the “Gastric-Fistula Beagle % Inhibition” value in the experiment with Gastric Acid Secretion [1] (i.d.) stood at 53 i.d. %. Moreover, the “Pavlov-Pouch Dog % Inhibition” value with Gastric Acid Secretion [2] (1 mg/kg) is listed as 20 (1 mg/kg) %; in the experiment with Gastric Acid Secretion [2] (10 mg/kg), 87 (10 mg/kg) %.
As for `COc1ccc2[nH]c([S+]([O-])Cc3ccccc3N)nc2c1` (stereo not drawn) [Example 5, 2-[[(5-methoxy-1H-benzimidazol-2-yl)sulfinyl]methyl]benzenamine], the “Pavlov-Pouch Dog % Inhibition” value in the experiment on Gastric Acid Secretion [2] (3 mg/kg) is reported as 19 (3 mg/kg) %; with Gastric Acid Secretion [2] (10 mg/kg), 54 (10 mg/kg) %.
As to `Cc1ccc(N)c(C[S+]([O-])c2nc3ccccc3[nH]2)c1` (stereo not drawn) [Example 11, 2-[(1H-benzimidazol-2-ylsulfinyl)methyl]-4-methylbenzenamine], in the experiment with Gastric Acid Secretion [1] (i.v.), the “Gastric-Fistula Beagle % Inhibition” value stood at 67 i.v. %.
Regarding `Cc1cccc(C[S+]([O-])c2nc3ccccc3[nH]2)c1N` (stereo not drawn) [Example 13, 2-[(1H-benzimidazol-2-ylsulfinyl)methyl]-6-methylbenzenamine], in the experiment with Gastric Acid Secretion [1] (i.d.), the “Gastric-Fistula Beagle % Inhibition” value is recorded as 44 i.d. %. Moreover, the “Pavlov-Pouch Dog % Inhibition” value in the experiment with Gastric Acid Secretion [2] (3 mg/kg) is recorded as 43 (3 mg/kg) %.
Regarding `COc1ccc2[nH]c(SCc3cc(C)ccc3N)nc2c1` [Example 16, 2-[[(5-methoxy-1H-benzimidazol-2-yl)thio]methyl]-4-methylbenzenamine], the IC50 on (H⁺+K⁺)-ATPase stood at 0.85 µM.
For `COc1ccc2[nH]c(SCc3cccc(C)c3N)nc2c1` [Example 18, 2-[[(5-methoxy-1H-benzimidazol-2-yl)thio]methyl]-6-methylbenzenamine], the IC50 on (H⁺+K⁺)-ATPase worked out at 4.2 µM. For the same molecule, the inhibition in vivo at 3 mg/kg amounted to 66% with Gastric Acid Secretion [1] (intraduodenal, i.d.); 91% with Gastric Acid Secretion [1] (iv); 43% with Gastric Acid Secretion [1] (po, i.g.). The “Pavlov-Pouch Dog % Inhibition” value in the experiment on Gastric Acid Secretion [2] (3 mg/kg) was 79 (3mg/kg) %.
As to `Cc1ccc(CSc2nc3ccccc3[nH]2)c(N)c1C` [Example 22, 2-[(1H-benzimidazol-2-ylthio)methyl]-5,6-dimethylbenzenamine], the IC50 at (H⁺+K⁺)-ATPase turned out to be 4.4 µM. The molecule also showed an inhibition in vivo at 3 mg/kg in the experiment on Gastric Acid Secretion [1] (intraduodenal, i.d.) of 37%.
For `CCOc1ccc2[nH]c(SCc3cc(C)ccc3N)nc2c1` [Example 26, 2-[[(5-ethoxy-1H-benzimidazol-2-yl)thio]-methyl]-4-methylbenzenamine], at (H⁺+K⁺)-ATPase, the IC50 was determined as 0.82 µM.
The same measure, in the same setting: for `Cc1cc(N)c(C[S+]([O-])c2nc3ccccc3[nH]2)c(C)c1C` (stereo not drawn) [Example 30, 2-[(1H-benzimidazol-2-ylsulfinyl)methyl]-3,4,5-trimethylbenzenamine hemihydrate] the value was 1.5 µM.
With `COc1ccc2[nH]c([S+]([O-])Cc3c(N)cc(C)c(OC)c3C)nc2c1` (stereo not drawn) [Example 31, 2-[[(5-methoxy-1H-benzimidazol-2-yl)sulfinyl]methyl]-4-methoxy-3,5-dimethylbenzenamine], the IC50 on (H⁺+K⁺)-ATPase was determined as 16 µM. Further, the “Gastric-Fistula Beagle % Inhibition” value in the experiment on Gastric Acid Secretion [1] (i.d.) is recorded as 31 i.d. %.
